Measurements: patent US20250057969A1, “CONJUGATES COMPRISING CLEAVABLE LINKERS” (priority 2023, published 2025)
Numbered stars: 1 amine (or outer) side, 2 acyl side, 3 side chain; on linkers, the order of the positions; unused ones are H or OH. Square brackets hold non-standard residues; d marks the D form. Peptide text beside a SMILES is read from it. * marks the point of attachment. X1 = O=C(O)[C@H]1O[C@@H](Oc2ccc(COC(=O)[*:2])cc2N[*:1])[C@H](O)[C@@H](O)[C@@H]1O; CH3O(CH2CH2O)11CH2CH2CO = COCCOCCOCCOCCOCCOCCOCCOCCOCCOCCOCCOCCC(=O)*; Dolaproine = CO[C@@H]([C@@H]1CCCN1)[C@@H](C)C(=O)O; Hexanoyl(6-maleimido) = O=C1C=CC(=O)N1CCCCCC(=O)*; Propanoyl(3-maleimido) = O=C1C=CC(=O)N1CCC(=O)*; Dil = CC[C@H](C)[C@H](NC)[C@@H](CC(=O)O)OC; PABC = O=C(OCc1ccc(N[*:1])cc1)[*:2]; X2 = C[C@@H](N*)[C@@H](O)c1ccccc1; Cit = NC(=O)NCCC[C@H](N)C(=O)O; NMeV = CN[C@H](C(=O)O)C(C)C; βAla = NCCC(=O)O

Assays:
Assay type in all cases: biochemical
[1] = target: T1, Human neutrophil elastase (Homo sapiens, UniProt P08246); test: Linker-Payload enzymatic cleavage with human neutrophil elastase; conditions: 0.67 μM enzyme, 67 μM Linker-Payload, pH 7.4, 37° C., 24 hours
T1 sequence (P08246 30-267): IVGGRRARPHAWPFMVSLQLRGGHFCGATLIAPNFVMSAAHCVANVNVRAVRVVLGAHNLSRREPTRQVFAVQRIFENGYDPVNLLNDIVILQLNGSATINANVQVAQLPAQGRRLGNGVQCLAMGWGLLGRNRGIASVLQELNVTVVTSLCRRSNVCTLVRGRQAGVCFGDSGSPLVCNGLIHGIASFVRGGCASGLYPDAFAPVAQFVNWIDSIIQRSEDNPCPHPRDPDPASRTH
Experimental: (§1) 0.67 μM Human neutrophil elastase was added to 67 μM Linker-Payload (1:100) in Tris Buffered Saline, pH 7.4. The mixture was incubated at 37° C. for a duration of 24 hours with intermediate timepoints collected and diluted 1:1 with buffer containing acetonitrile, water and formic acid. The sample was measured by reverse-phase HPLC with data quantified against a standard curve.

β-glucuronidase = target: T2, β-glucuronidase (Homo sapiens, UniProt P08236); test: Linker-Payload enzymatic cleavage with β-glucuronidase; conditions: 4 nM enzyme, 40 μM Linker-Payload, pH 5.0, 37° C., 24 hours
T2 sequence (P08236 23-651): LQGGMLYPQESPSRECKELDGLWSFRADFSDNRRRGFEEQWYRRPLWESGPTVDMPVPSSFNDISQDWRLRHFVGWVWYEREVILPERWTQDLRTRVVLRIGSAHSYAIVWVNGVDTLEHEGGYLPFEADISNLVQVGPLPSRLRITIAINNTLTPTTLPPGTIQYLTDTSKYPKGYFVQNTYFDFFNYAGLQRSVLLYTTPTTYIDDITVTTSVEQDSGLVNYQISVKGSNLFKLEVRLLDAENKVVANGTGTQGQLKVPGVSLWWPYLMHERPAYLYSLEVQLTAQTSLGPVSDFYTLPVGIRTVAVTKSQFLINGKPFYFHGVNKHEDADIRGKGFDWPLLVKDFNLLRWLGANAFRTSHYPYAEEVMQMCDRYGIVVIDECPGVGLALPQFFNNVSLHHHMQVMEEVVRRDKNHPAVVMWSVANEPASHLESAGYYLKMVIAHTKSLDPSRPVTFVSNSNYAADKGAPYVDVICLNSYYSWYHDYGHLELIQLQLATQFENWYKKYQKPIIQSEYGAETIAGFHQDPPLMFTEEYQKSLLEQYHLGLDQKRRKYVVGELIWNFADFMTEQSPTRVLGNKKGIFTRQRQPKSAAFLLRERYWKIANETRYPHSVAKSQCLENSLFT
Experimental: as §1, with “4 nM β-glucuronidase” for “0.67 μM Human neutrophil elastase”, “40” for “67”, “(1:10,000)” for “(1:100)”, “50 mM sodium acetate,” for “Tris Buffered Saline,”, “5.0.” for “7.4.”

Cathepsin B = Cathepsin B (Homo sapiens, UniProt P07858); test: Linker-Payload enzymatic cleavage with Cathepsin B; conditions: 0.14 μM enzyme, 70 μM Linker-Payload, pH 5.0, 37° C., 24 hours
Experimental: as §1, with “0.14” for “0.67”, “Cathepsin B” for “Human neutrophil elastase”, “70” for “67”, “(1:500)” for “(1:100)”, “50 mM sodium acetate, 1 mM DTT,” for “Tris Buffered Saline,”, “5.0.” for “7.4.”

Row | SMILES | cleavage in the presence of human neutrophil elastase (FIG. 1C) [1] | cleavage in the presence of human neutrophil elastase (FIG. 1D) [1] | cleavage in the presence of β-glucuronidase (FIG. 1A) (β-glucuronidase) | cleavage in the presence of cathepsin B (FIG. 1B) (Cathepsin B) | cleavage rate in the presence of β-glucuronidase relative to LP7 and LP8 (FIG. 1E) (β-glucuronidase)
1 | CC[C@H](C)[C@@H]([C@@H](CC(=O)N1CCC[C@H]1[C@H](OC)[C@@H](C)C(=O)N[C@H](C)[C@@H](O)c1ccccc1)OC)N(C)C(=O)[C@@H](NC(=O)[C@H](C(C)C)N(C)C(=O)OCc1ccc(NC(=O)[C@H](CCCNC(N)=O)NC(=O)[C@@H](NC(=O)CCCCCN2C(=O)C=CC2=O)C(C)C)cc1)C(C)C [LP1, maleimidocaproyl-valine-citrulline-p-amrninobenzoyloxycajrbonyl-MMAE, reference compound] ({Hexanoyl(6-maleimido)}-V[Cit][PABC][NMeV]V[Dil][Dolaproine]-X2) | underwent more rapid cleavage |  |  |  | 
2 | CC[C@H](C)[C@@H]([C@@H](CC(=O)N1CCC[C@H]1[C@H](OC)[C@@H](C)C(=O)N[C@H](C)[C@@H](O)c1ccccc1)OC)N(C)C(=O)[C@@H](NC(=O)[C@H](C(C)C)N(C)C(=O)OCc1ccc(O[C@@H]2O[C@H](C(=O)O)[C@@H](O)[C@H](O)[C@H]2O)c(CNC(=O)CCNC(=O)[C@H](CCCCNC(=O)CCOCCOCCOCCOCCOCCOCCOCCOCCOCCOCCOCCOC)NC(=O)CCN2C(=O)C=CC2=O)c1)C(C)C [LP7, reference compound] |  | did not undergo rapid cleavage |  |  | 
3 | CC[C@H](C)[C@@H]([C@@H](CC(=O)N1CCC[C@H]1[C@H](OC)[C@@H](C)C(=O)N[C@H](C)[C@@H](O)c1ccccc1)OC)N(C)C(=O)[C@@H](NC(=O)[C@H](C(C)C)N(C)C(=O)OCc1ccc(O[C@@H]2O[C@H](C(=O)O)[C@@H](O)[C@H](O)[C@H]2O)c(NC(=O)CCNC(=O)[C@H](CCCCNC(=O)CCOCCOCCOCCOCCOCCOCCOCCOCCOCCOCCOCCOC)NC(=O)CCN2C(=O)C=CC2=O)c1)C(C)C [LP8, reference compound] ({Propanoyl(3-maleimido)}-K(CH3O(CH2CH2O)11CH2CH2CO)[βAla][X1][NMeV]V[Dil][Dolaproine]-X2) |  | did not undergo rapid cleavage |  |  | 
4 | CC[C@H](C)[C@@H]([C@@H](CC(=O)N1CCC[C@H]1[C@H](OC)[C@@H](C)C(=O)N[C@H](C)[C@@H](O)c1ccccc1)OC)N(C)C(=O)[C@@H](NC(=O)[C@H](C(C)C)N(C)C(=O)OCc1ccc(O[C@@H]2O[C@H](C(=O)O)[C@@H](O)[C@H](O)[C@H]2O)c(CNC(=O)COC2(CNC(=O)CCN3C(=O)C=CC3=O)CN(C(=O)CCOCCOCCOCCOCCOCCOCCOCCOCCOCCOCCOCCOC)C2)c1)C(C)C [LP3] | did not undergo rapid cleavage |  | underwent significant cleavage | neither LP2 nor LP3 underwent rapid cleavage | 
5 | CC[C@H](C)[C@@H]([C@@H](CC(=O)N1CCC[C@H]1[C@H](OC)[C@@H](C)C(=O)N[C@H](C)[C@@H](O)c1ccccc1)OC)N(C)C(=O)[C@@H](NC(=O)[C@H](C(C)C)N(C)C(=O)OCc1ccc(O[C@@H]2O[C@H](C(=O)O)[C@@H](O)[C@H](O)[C@H]2O)c(CNC(=O)CCNC(=O)COC2(CNC(=O)CCN3C(=O)C=CC3=O)CN(C(=O)CCOCCOCCOCCOCCOCCOCCOCCOCCOCCOCCOCCOC)C2)c1)C(C)C [LP2] | did not undergo rapid cleavage | did not undergo rapid cleavage | underwent significant cleavage | neither LP2 nor LP3 underwent rapid cleavage | underwent slower cleavage than both LP7 (Reference) and LP8 (Reference)
